Test results taken from patent publication US20250296909A1, “NOVEL BENZENE DERIVATIVE AND IMMUNOSUPPRESSION-RELATED USE THEREOF” (PROVIBIO CO., LTD., priority 2021, published 2025).
Like-named read-outs stand apart in the source and are kept apart here.

Tests used:
[1] = tested on: spleen T cells; assay: T cell proliferation inhibition (CFSE, FACS), CD3/CD28-activated spleen T cells; type: cell-based, C57BL/6 mice; conditions: for inhibition at 10 µM / inhibition at 30 µM / inhibition at 50 µM: Mus musculus, T-cell, read-out: Proliferation inhibition rate (%)
How it was run: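 Proliferation inhibition is expressed as a percentage versus CD3/CD28-stimulated DMSO controls, from CFSE dye dilution measured by FACS after 3 days at 37 °C. Compounds at 10, 30 and 50 μM (triplicate) on anti-CD3/CD28-activated (0.5 μg/mL each) C57BL/6 mouse spleen T cells, 2×10^5 per well.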

[2] = tested on: T lymphocyte cell line Jurkat E6-1; assay: Cytotoxicity experiment (CCK-8, relative cell survival); type: cell-based; conditions: 24 hours, untreated cells = 100%
How it was run: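 Relative survival versus untreated cells (set to 100%) from CCK-8 absorbance at 450 nm after 2 h dye incubation. Cells had been treated with graded compound concentrations for 24 h at 37 °C in 5% CO2, cultured in RPMI-1640 plus 10% FBS.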

[3] = tested on: spleen T cells; assay: Cytokine secretion by anti-CD3/CD28-activated T cells (Cytometric Bead Array); type: cell-based, C57BL/6 mice; conditions: 30 μM; for secretion of IL-2: 24 hours after treatment, FIG. 3; for secretion of IFN-γ / secretion of IL-17A / secretion of TNF-α: 72 hours after treatment
Procedure: To confirm the effect of compounds of the present invention on the secretion of cytokines by T cells, the following experiment was conducted.
Spleens were harvested and minced from C57BL/6 mice at 7 weeks of age, and single cells were isolated using a strainer (40 μm pore size, SPL). Red blood cells were removed using ACK (Ammonium-Chloride-Potassium) lysis buffer to isolate only leukocytes. These were then reacted with 10 v/v % CD90.2 microbeads (130-121-278, Miltenyi Biotech.) at 4° C. for 20 minutes, resulting in the isolation of spleen T cells from magnetic-based purification. The T cells were cultured in a 96-well plate at an amount of 2×10^5 cells/well. For T cell activation, each well was treated with anti-CD3/CD28 antibodies at a concentration of 1 μg/mL. Subsequently, Vehicle (DMSO) and compounds (Compound 14, Compound 19, Compound 26, Compound 31, Compound 35, Compound 40, Compound 41, Compound 56, Compound 69, Compound 75) at a concentration of 30 μM were treated in each well, and it was cultured at 37° C. in a 5% CO2 incubator. After 24 and 72 hours, the T cell culture medium was taken, and centrifugation was performed at 13,000 rpm for 10 minutes to obtain the supernatant.
To measure the concentration of cytokines present in the T cell culture medium, Mouse Th1/Th2/Th17 Cytokine CBA Kit (Cytometric Bead Array kit) 560485 from BD Science was utilized for flow cytometry analysis. The secretion levels of IL-2 at 24 hours after each drug treatment, and IFN-γ, TNF-α, and IL-17A at 72 hours were measured after each drug treatment.

[4] = 72 h, Table 2, 10 μM, 3 days, relative to CD3/CD28+DMSO
[5] = 72 h, Table 2, 30 μM, 3 days, relative to CD3/CD28+DMSO
[6] = 72 h, Table 2, 50 μM, 3 days, relative to CD3/CD28+DMSO
[7] = Table 2, 10 μM, 3 days, relative to CD3/CD28+DMSO
[8] = Table 2, 30 μM, 3 days, relative to CD3/CD28+DMSO
[9] = Table 2, 50 μM, 3 days, relative to CD3/CD28+DMSO

SMILES	inhibition at 10 µM [1, 4] [%]	inhibition at 30 µM [1, 5] [%]	inhibition at 50 µM [1, 6] [%]	Relative cell survival rate (%) ([2]; 10 μM)	Relative cell survival rate (%) ([2]; 20 μM)	Relative cell survival rate (%) ([2]; 30 μM)	Relative cell survival rate (%) ([2]; 50 μM)	secretion of IL-2 [3]	secretion of IFN-γ [3]	secretion of IL-17A [3]	secretion of TNF-α [3]	Proliferation inhibition rate (%) [1, 7] [%]	Proliferation inhibition rate (%) [1, 8] [%]	Proliferation inhibition rate (%) [1, 9] [%]	inhibition at 10 µM ([1]; Table 3 (compounds not belonging to Formula 1), 10 μM) [%]	inhibition at 30 µM ([1]; Table 3 (compounds not belonging to Formula 1), 30 μM) [%]	inhibition at 50 µM ([1]; Table 3 (compounds not belonging to Formula 1), 50 μM) [%]	cell proliferation read by FACS (FIG. 2) ([1]; concentrations ranging from 10 to 30 μM)
CCCCCCCCCCCCNC(=O)c1cccnc1 [Compound 19]	19	99	100	94	87	82	83	significant decrease	significant decrease	significant decrease	significant decrease	–	–	–	–	–	–	–
CCCCCCCCCCCCNC(=O)c1cccnc1Oc1ccc(Cl)cc1 [Compound 26]	–	–	–	101	97	85	82	significant decrease	significant decrease	significant decrease	significant decrease	73	100	100	–	–	–	–
CCCCCCCCCCCCNS(=O)(=O)c1ccccc1Br [Compound 35]	–	–	–	97	89	87	86	significant decrease	significant decrease	significant decrease	significant decrease	85	92	93	–	–	–	–
CCCCCCCCCCCCNS(=O)(=O)c1c(Cl)cccc1Cl [Compound 40]	–	–	–	105	99	96	86	significant decrease	significant decrease	significant decrease	significant decrease	86	97	97	–	–	–	–
CCCCCCCCCCCCNS(=O)(=O)c1c(C)cc(C)cc1C [Compound 41]	–	–	–	85	83	82	80	significant decrease	significant decrease	significant decrease	significant decrease	80	100	100	–	–	–	–
CCCCCCCCCCCCNC(=O)CNC(=O)c1ccccc1Cl [Compound 56]	–	–	–	92	91	89	86	significant decrease	significant decrease	significant decrease	significant decrease	26	50	62	–	–	–	–
CC(C)=CCC/C(C)=C/CNC(=O)c1cccnc1N [Compound 75]	95	98	98	97	95	86	85	significant decrease	significant decrease	significant decrease	significant decrease	–	–	–	–	–	–	–
CCCCCCCCCCCCNC(=O)c1cccnc1C(F)(F)F [Compound 77]	–	–	–	116	124	123	123	–	–	–	–	24	47	66	–	–	–	–
CCCCNC(=O)c1ccccc1F [Compound 81]	–	–	–	103	105	107	108	–	–	–	–	–	–	–	0	2	22	–
CCCCCCCCNCCCNC(=O)c1nccnc1Cl [Compound 82]	60	80	85	95	90	97	88	–	–	–	–	–	–	–	–	–	–	–
CCCCCCCCCCCCNC(=O)c1ccccc1-n1cccc1 [Compound 84]	89	96	100	96	94	96	94	–	–	–	–	–	–	–	–	–	–	inhibition of cell proliferation
